Entries after “also recorded” stand apart in the source; their conditions may differ.
Tests used:
[1] = target: T1, hKv1.1 (Homo sapiens, UniProt Q09470); experiment: voltage-clamp of K+ currents in CHO-K1 cells expressing hKv1.1; type: cell-based
T1 construct: expressed in transfected cells; host or cells: CHO-K1
Excerpt: As measure of Ifast, peak current was used, whereas, as a measure of Islow, the current value was obtained at the end of the command pulse (see FIG. 1). Values are expressed as mean±S.E.M. For Islow, a dual phase relationship can be observed. […] Kv1.3 channel is the most sensitive channel (around 6-fold more sensitive in comparison to the “next most sensitive one”, the Kv1.2) Kv1.2, Kv1.1 and Kv1.6 show similar, intermediate sensitivities to nitenin. In opposition, Kv1.4 is the less sensitive (˜31 times less sensitive).
Additionally, drug sensitivity to different voltage-activated channels was assessed by studying the drug effect on currents recorded from chinese hamster ovary (CHO) cells stably transfected with different human Kv channel subunits (Kv1.1, Kv1.2, Kv1.3, Kv1.4 and Kv1.6).
The higher sensitivity of nitenin to Islow (rather than Ifast) and the nature of the nitenin sensitive current (see nitenin sensitive current in FIG. 1.b) urged to understand which K^+ channel(s) do underline Islow. By considering which Kv channel subunits are known to be expressed in DRG, and the biophysical nature of the nitenin-sensitive current, nitenin was tested on whole-cell currents recorded from CHO cells expressing hKv1.1, hKv1.2, hKv1.3, hKv1.4 and hKv1.6. […] Current inhibition was measured at the end of the 1000 ms pulse.

[2] = system: anesthetized Wistar rats; experiment: in vivo ECG recordings of anesthetized Wistar rats; design: species or system rat; settings: intravenous 60 μg/Kg
[3] = system: K+ currents of small diameter dorsal-root ganglion neuron; experiment: voltage dependence of steady state of inactivation of K+ currents in sdDRGn; type: cell-based, rat
Excerpt: (§1) One can observe a shift to hyperpolarized values during the nitenin treatment. The relationships were better fit with the sum of two Boltzmann functions, showing that in both conditions there are two components: one more hyperpolarized component (component 1) and one other more depolarized component (component 2).
as §1, with “treatment with the compound of formula VI.” for “nitenin treatment.”
as §1, with “treatment with the compound of formula VII.” for “nitenin treatment.”
as §1, with “treatment with the compound of formula VIII.” for “nitenin treatment.”
(§2) For the electrophysiological recordings of the ex vivo material, voltage-clamp recordings were performed on neurons isolated from rat DRGs (and TGs). Recordings were performed from the soma that often contained the proximal fraction of axon, 1 hour after the end of the cell isolation process (includes enzymatic and mechanical treatment).

[4] = system: STZ rats; experiment: diabetic neuropathic pain rat model STZ, von Frey filaments; type: in vivo; settings: I.V. 1 μg/mL of blood; 60 days after STZ
Experimental: […]
(§3) For efficacy studies, nociception was assessed in all animals from all pain models by regular behavioural monitoring, by quantifying the sensitivity to mechanical stimuli with Von Frey filaments, and consequently reflecting hyperalgesia when hypersensitive. […] Intraperitoneal administration was tested in CFA rats (23 days after CFA injection), with 10 times the nitenin quantity administered by I.V. injections. […] Oral administration of nitenin through stomach gavages (endogastric), with 100 times the quantity administered by I.V. injections, was tested in CCI rats (31 days after surgery). […]

[5] = system: COP rats (CFA injection in the whisker pad of Wistar rats); experiment: chronic orofacial pain (COP) rat model, von Frey filaments; type: in vivo; settings: I.V. 1 μg/mL of blood
Excerpt: Values refer to the mechanical sensitivity to face stimulation (whiskers region) using calibrated von Frey Filaments, and consequently reflecting hyperalgesia when hypersensitive (black filled markers—ipsilateral, injured face-side; Open markers—contralateral, uninjured face-side). Dotted line refers to the average value of the ipsilateral face prior to the CFA injection. a) Induction of the model showing that 3 days after operation, the mechanical sensitivity of the ipsilateral face-sides increase markedly, whereas the one associated with the contralateral leg maintains relatively unchanged, similar to baseline values. […]
as §3

[6] = system: K+ currents of small diameter trigeminal ganglion neurons (sdTGNs); experiment: whole-cell voltage-clamp of K+ currents in sdTGNs; type: cell-based, rat
Experimental: The nitenin analogue compounds of the present application were first obtained from the marine sponge Spongia agaracina captured in Sagres, Portugal, but have also been chemically synthesized.
as §2

T1 sequence (Q09470 whole entry): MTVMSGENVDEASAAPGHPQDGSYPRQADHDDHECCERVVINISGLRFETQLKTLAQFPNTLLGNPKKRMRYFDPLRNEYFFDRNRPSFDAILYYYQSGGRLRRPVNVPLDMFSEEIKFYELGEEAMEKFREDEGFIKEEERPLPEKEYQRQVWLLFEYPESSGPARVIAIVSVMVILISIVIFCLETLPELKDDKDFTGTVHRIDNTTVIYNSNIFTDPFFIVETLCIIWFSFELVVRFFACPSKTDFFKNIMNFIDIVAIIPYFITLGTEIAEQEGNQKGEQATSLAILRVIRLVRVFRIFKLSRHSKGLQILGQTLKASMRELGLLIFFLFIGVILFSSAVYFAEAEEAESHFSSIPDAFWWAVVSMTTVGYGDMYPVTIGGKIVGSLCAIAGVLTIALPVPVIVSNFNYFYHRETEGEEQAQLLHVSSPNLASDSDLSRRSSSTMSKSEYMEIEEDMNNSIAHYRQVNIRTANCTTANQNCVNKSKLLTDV

How did the “lower sensitivity of hKv1.1 relative to Kv1.3” value [1] turn out when C/C(=C\C1C/C(=C/CCc2ccoc2)C(=O)O1)CCCc1ccoc1 (stereo not drawn) [nitenin] was run?
Its value is ~6 ×.

And the “arrhythmia or pro-arrhythmic phenomena (ECG)” value [2]?
The value was “neither induced arrhythmia or any pro-arrhythmic phenomena”.

And the “sinus rhythm and heart rate (ECG)” value [2]?
The value was “did not change”.

What about the “effect on I-V curves of the voltage dependence of inactivation” value [3] of the same compound?
Its value is “shifts to more hyperpolarised potentials”.

What about the “Vh2 (voltage of half maximum current, component 2) of steady state inactivation” value ([3]; nitenin 0.1 μg/ml, 0.29 μM, neuron from injured side of CCI rat 28 days after surgery, control −26.3) of the same compound?
The value was −47.0 mV.

What about the “Vh1 (voltage of half maximum current, component 1) of steady state inactivation” value ([3]; nitenin 0.1 μg/ml, 0.29 μM, neuron from injured side of CCI rat 28 days after surgery, control −73.3) of the same compound?
Its value is −95.3 mV.

And the “mechanical sensitivity in the hypersensitive paws” value [4]?
Its value is “decrease of mechanical sensitivity”.

What about the “mechanical sensitivity at the whisker pad region (von Frey)” value [5] of the same compound?
Its value is “reaching values not different to those obtained during baseline; also recorded: marked reduction of mechanical sensitivity”.

What about the “effect on K+ currents from sdTGNs” value [6] of the same compound?
The value was “inhibited the K^+ currents”.
